Results reported in EP4772500A1, “NOVEL ISOXAZOLE COMPOUND AS TM4SF5-SPECIFIC INHIBITOR AND USE THEREOF” (Seoul National University R&DB Foundation, priority 2023, dated 2025).

Key:
SNU449T7 cells = assay: Liver-orthotopic xenograft model of TM4SF5-expressing cell line; assay type: in vivo, BALB/c-Nude mice
Description: The next day, the cells were detached by treating with a T/E (Trypsin/EDTA) solution and centrifuged at 150x g for 3 minutes to obtain a pellet. Thereafter, the supernatant was removed, leaving only the pellet. After mixing with matrigel matrix (CORNING) such that the final concentration of EGF was 50 ng/µl, the cell pellet was prepared by resuspension in the mixture of EGF and matrigel. Then, 5x10^5 cells/20 µl were directly injected once into the liver of 6-week-old male BALB/c-Nude mice. At this time, the animals were anesthetized by inhalation with […] isoflurane and injected. From one week after the cell injection, drug ST-5-002 was intraperitoneally injected at 5 mg/kg twice a week. After injecting the drug for a total of 6 times over 3 weeks, the animals were sacrificed at the 4th week of cell injection, and liver tissues were obtained and analyzed.
(a-d) A liver-orthotopic xenograft model was established by directly injecting 5x10^5 SNU449T7 cells into the livers of 6-week-old male BALB/c-Nude mice (n=9), which are deficient in T and B cells but still capable of activating NK cell functions. Starting one week after the cell injection, the drug ST-5-002 was intraperitoneally injected at 5 mg/kg twice a week (a). After a total of 6 injections over 3 weeks, the animals were sacrificed at the 4th week of cell injection, and liver tissues were obtained and images of the livers were taken (b). Body weight was measured every week during the drug injections. Meanwhile, although cancer formation occurred in several places in the liver tissue, the cancer masses were […], and since it was practically difficult to measure the size or volume of small cancer masses due to time constraints for tissue specimen processing, the volume of the largest cancer mass was measured for each liver tissue. The tumor volumes calculated from n=7 liver tissues, excluding the maximum and minimum values, are shown (c). (d) For a portion of the liver tissues, the expression level, distribution, and localization of each factor, as well as the degree of damage to the liver cancer tissue, were confirmed through immunohistochemistry or H&E staining for the given protein factors.
(a-b) As in FIG. 20, a liver-orthotopic xenograft model was established by directly injecting 5x10^5 SNU449T7 cells into the livers of 6-week-old male BALB/c-Nude mice (n=9), which are deficient in T and B cells but still capable of activating NK cell functions. Starting one week after the cell injection, the drug ST-5-002 was intraperitoneally injected at 5 mg/kg twice a week. (b-d) After the end of the experiment, for a portion of the obtained liver tissues, the expression level, distribution, and localization of SLAMF7, SLAMF6, NKG2D, PD-L1, and PD-1 factors, as well as the degree of liver cancer tissue, were confirmed through immunohistochemistry.

[1] = system: C57BL/6 mice on Methionine-Choline Deficient (MCD) diet; assay: MCD diet non-alcoholic steatohepatitis (NASH) mouse model; assay type: in vivo
Description: Wildtype (WT), Alb-TG^Tm4sf5-Flag, and Tm4sf5^-/- (Tm4sf5 gene-deficient) KO C57BL/6N mice were raised in a pathogen-free room animal facility where temperature and humidity were well controlled. For the experiment to establish the steatohepatitis NASH disease model, 22-week-old mice were used. For the induction of hepatic steatohepatitis through an MCD (TD.90262, Teklad) diet, 6-week-old male mice were randomly divided into normal chow diet (NCD, Purina, Cat # 38057) and MCD groups and allowed free access to the diet for 4 weeks (7 mice per group). When treating with drugs, intraperitoneal injection was performed at a concentration of 5 mg/kg twice a week. After the end of the experiment, liver tissues were obtained and analyzed through methods of H&E, immunohistochemistry tissue staining, Western blot, and qRT-PCR.
Normal 22-week-old C57BL/6 mice were randomly divided into a normal chow diet (NCD) group and a Methionine-Choline Deficient (MCD) diet group, which is a non-alcoholic steatohepatitis (NASH) induction diet, with 3 to 6 mice per group, and were allowed free access to the diets for 4 weeks. Simultaneously, vehicle (DMSO) or ST-2-001 at a concentration of 5 mg/kg was treated twice a week per animal via intraperitoneal injection (IP). After 4 weeks, liver tissues were obtained, and Masson's Trichrome staining showing the accumulation of collagen I (degree of fibrosis) and immunohistochemistry using antibodies against the given factors were performed. Representative images were obtained by randomly scanning the stained liver tissue sections using a digital slide scanner (MoticEasyScan, Motic, British Columbia, Canada). Additionally, tissue extracts were obtained from a portion of the liver tissues to perform Western blotting or qRT-PCR for the given factors, thereby confirming the mRNA and protein expression levels and phosphorylation degrees of signaling factors related to the induction of NASH-fibrosis symptoms and the regulation of T or NK cell activity. Meanwhile, in addition to the animal models, it was intended to confirm whether the expressions of TM4SF5, laminin γ2, and AFP correlate with each other at the hepatocyte level and are regulated by the TM4SF5-specific inhibitor isoxazole compound.

[2] = mouse xenograft experiment, liver tissue extracts, Western blotting (FIG. 13e)
[3] = MCD diet, liver tissue extracts (FIG. 8c)

Compound | inhibitory effect on liver cancer formation (SNU449T7 cells; 5 mg/kg IP twice a week, 6 times, images (FIG. 20b)) | distribution of cells highly expressing PD-L1 (SNU449T7 cells; immunohistochemistry (FIG. 22e)) | infiltration of PD-1-expressing cells (SNU449T7 cells; immunohistochemistry (FIG. 22d)) | expressions of Ki67, AFP, F4/80, CCL2 and CCL20, and laminin γ2 (SNU449T7 cells; immunohistochemistry of liver tissue (FIG. 20d)) | distribution of cells highly expressing SLAMF7 (SNU449T7 cells; immunohistochemistry, interface of small tumors (FIG. 22b)) | degree of staining for SLAMF6 and NKG2D (SNU449T7 cells; immunohistochemistry, small cancerous areas (FIG. 22c)) | tumor volume (SNU449T7 cells; largest cancer mass per liver, 28th day, vs vehicle (FIG. 20c)) | SLAMF6 expression (SNU449T7 cells; [2]) | TIGIT expression level (SNU449T7 cells; [2]) | NASH-fibrosis symptoms ([1]; MCD diet, 5 mg/kg IP twice a week, 4 weeks, tissue staining (FIG. 8a)) | CPT1 (carnitine palmitoyltransferase 1) [1, 3] | expressions and levels of fibrosis-related factors, factors related to lipogenesis and steatosis, and cytokines/chemokines related to inflammation [1, 3] | α-Sma, Afp, and Pd-ll expression ([1]; MCD diet, liver tissue extracts, Western blotting (FIG. 8b)) | mRNA levels for lipogenesis (Acc, Dgat2, Fasn) and activation of Kupffer cells (Trem2, Tim4, Clec4j) ([1]; MCD diet, liver tissues, qRT-PCR (FIG. 8d)) | effect on the liver tissue or the expression of the stained factors ([1]; NCD (normal chow diet), 5 mg/kg IP twice a week (FIG. 8a)) | expression of α-Sma, Afp, Pd-l1 ([1]; NCD, liver tissue extracts, Western blotting (FIG. 8b))
Cc1ccc(C(=O)Nc2ccc(-c3cc(-c4ccc(O)cc4)no3)cc2)cc1 [ST-5-002, N-(4-(3-(4-hydroxyphenyl)isoxazole-5-yl)phenyl)-4-methylbenzamide] | distinct | scattered and distributed at a low level inside the tumor | scattered and distributed without restriction | significantly lower | infiltrated and were distributed or localized inside the tumor | further increased inside the tumor area | significantly reduced | increased | lowered |  |  |  |  |  |  | 
COc1ccc(-c2cc(-c3ccc(NC(C)=O)cc3)no2)cc1 [ST-2-001, N-(4-(5-(4-methoxyphenyl)isoxazole-3-yl)phenyl)acetamide] |  |  |  |  |  |  |  |  |  | clearly inhibited | rather increased | suppressed | decreased | inhibited | had no effect | slightly decreased
